According to patent publication US20230264009A1, “DISINFECTING CAP KIT FOR LUER ACCESS DEVICES” (SterileCare Inc., priority 2022, published 2023):

Experiments:
E. coli SK2 [1] = test: MIC, micro broth dilution; format: cell-based, Escherichia coli; settings: alone, 24 h
Protocol: (§1) An assay was made using a minimum inhibitory concentration (MIC) and minimum bactericidal concentration (MBC) and minimum fungicidal concentration (MFC) determination. The MIC was determined by the micro broth dilution method in 96-well plates. Serial two-fold dilutions of tetrasodium EDTA (from 2% to 0.015%), ethanol (from 50% to 0.1%) and chlorhexidine HCl (from 100 µg/mL to 0.025 µg/mL) were prepared in MH broth with a final volume of 90 µL per well. A 10 µL containing 1 × 10^5 bacterial cells or 2 × 10^3 fungal cells were added to each well. The inoculated plates were covered with a lid, sealed with Parafilm, and incubated for 24 h at 37° C. with slight rocking on a tilting platform shaker. After incubation, the optical density at 600 nm (OD 600 ) of the cultures in each well was measured using an xMark™ Microplate Absorbance Spectrophotometer (Bio-Rad). […] MBCs and MFCs were determined by transferring 100 µL from each well with no apparent growth onto appropriate agar plates, followed by incubation for 24 h at 37° C.

C. albicans ON47 = test: MIC, micro broth dilution; format: cell-based, Candida albicans; settings: alone, 24 h
Protocol: as §1

Candida albicans SK4b = test: MBC/MFC determination; format: cell-based; settings: alone; C. albicans SK4b
Protocol: as §1

Escherichia coli ON29 = test: MBC/MFC determination; format: cell-based; settings: alone; E. coli ON29
Protocol: as §1

Proteus mirabilis ON153 = test: MBC/MFC determination; format: cell-based; settings: alone; P. mirabilis ON153
Protocol: as §1

[2] = test system: Pseudomonas aeruginosa SK1; test: MBC/MFC determination; format: cell-based; settings: alone; P. aeruginosa SK1
Protocol: as §1

Serratia marcescens SK2 = test: MBC/MFC determination; format: cell-based; settings: alone; S. marcescens SK2
Protocol: as §1

[3] = test system: Staphylococcus aureus ON89; test: MBC/MFC determination; format: cell-based; settings: alone; S. aureus ON89
Protocol: as §1

[4] = test system: Staphylococcus epidermidis ON170; test: MBC/MFC determination; format: cell-based; settings: alone; S. epidermidis ON170
Protocol: as §1

[5] = test system: Stenotrophomonas maltophilia ON17; test: MBC/MFC determination; format: cell-based; settings: alone; S. maltophilia ON17
Protocol: as §1

E. coli SK2 [6] = test: MBC/MFC determination; format: cell-based, Escherichia coli; settings: alone
Protocol: as §1

S. epidermidis SK9 = test: Checkerboard titration, FICI; format: cell-based, Staphylococcus epidermidis
Protocol: (§2) A fourth composition and solution included tetrasodium EDTA with ethanol or chlorhexidine HCl. This fourth composition and solution were created using checkerboard titration methods using micro broth dilution in 96-well microtiter plates. The concentrations of antimicrobials used were based on previously determined MIC values. Briefly, 200 µL of two-fold dilutions of tetrasodium EDTA and ethanol or chlorhexidine HCl were prepared in MH or MH II broth with standardized cell suspension. […] Microtiter plates were incubated at 37° C. for 24 h, and the results were analyzed. Each test was performed in duplicate and included a growth control without adding any antimicrobials.

E. coli SK2 [7] = test: Checkerboard titration, FICI; format: cell-based, Escherichia coli
Protocol: as §2

MRSA ON184 biofilm = test: MBEC Assay, 48-h biofilm, 24 h exposure; format: cell-based, Staphylococcus aureus
Protocol: A biofilm cultivation cell composition was provided. This fifth composition was created using an MBEC Assay® biofilm inoculator, consisting of a polystyrene lid with 96 downward-protruding pegs and a corresponding base used to grow biofilms. A standardized inoculum was diluted in an appropriate biofilm growth medium to achieve a viable cell count of 1.5 × 10^6 CFU/mL of bacterial cells or […] CFU/mL of fungal cells. Then, 150 µL of this inoculum was transferred into each appropriate well, and the peg lids were inserted into the microtiter plates. The plates were sealed with Parafilm and were incubated at optimum temperature for 48 h with slight rocking for bacteria and shaking at 200 rpm for fungal strains. After incubation, the peg lid was removed from the base and rinsed twice with sterile phosphate-buffered saline (PBS) for 2 min to remove loosely attached non-sessile cells. Before the antimicrobial challenge, the pegs in column 1 (n = 8) were considered the biofilm growth control; these pegs were removed from the lids, placed into 200 µL of recovery medium, and analyzed for starting biofilm cell numbers as described below. […] MBEC values were determined as the minimum concentration of antimicrobials that yielded a viable cell count at or lower than the 125 CFU/mL detection limit.

[8] = test system: Staphylococcus aureus ON89 biofilm; test: FBEC index, checkerboard dilution on biofilms; format: cell-based; settings: S. aureus ON89 biofilm
Protocol: In step (4), microtiter plates are incubated at 37° C. for 24 h. then (6), after incubation, the bacterial and fungal cells were dislodged from the pegs into the recovery medium described above.
Three 10-µL aliquots, for a total of 30 µL from each well of recovery medium, were spotted on MH agar plates and incubated for 24 h at 37° C. […] The FBEC determination is a modification of the FICI.

[9] = test system: 48-h old biofilms of test organisms; test: Rapid biofilm eradication, 2 h exposure; format: cell-based; settings: alone at the MBEC
Protocol: Determining rapid biofilm eradication by tetrasodium EDTA, ethanol, and chlorhexidine HCl alone and in combination was performed. After biofilm formation, control pegs (n = 6) were removed and analyzed to determine the starting biofilm cell numbers via the drop dilution method. The 48-h old biofilms on the pegs were exposed to different concentrations of test antimicrobials, dissolved in an appropriate growth medium, for two h to evaluate their efficacy alone and in combination. Antimicrobial solutions tested against each organism included each agent alone at the MBEC, double combinations at the FBEC, and triple combinations ranging from 5 to 20% ethanol, 2.5-5 µg/mL chlorhexidine HCl and 1- 3% tetrasodium EDTA. Following treatment, pegs were washed twice with sterile PBS, and the biofilm cells were dislodged into recovery medium and enumerated as described above.
The method for rapid biofilm eradication ability of test antimicrobials alone and in combination against 48-h-old biofilms within two h exposure time included (1) choosing different concentrations of test antimicrobials to assess their potency in eradicating preformed biofilms of study organisms within two h. Then (2) the quantitative recovery from biofilms following exposure to the antimicrobial solutions for bacterial strains (FIGS. 6A-6C) and fungal strains (FIG. 7) was evaluated.

[10] = tetrasodium EDTA + chlorhexidine HCl

Question: Which MIC (E. coli SK2 [1]) does the source give for `O=C([O-])CN(CCN(CC(=O)[O-])CC(=O)[O-])CC(=O)[O-].[Na+].[Na+].[Na+].[Na+]` [EDTA, tetrasodium EDTA] here?
Answer: 0.5 % w/v

Question: What about the MIC (C. albicans ON47) of the same compound?
Answer: 1 % w/v

Question: And the MBC/MFC (Candida albicans SK4b)?
Answer: 1 % w/v

Question: And the MBC/MFC (Escherichia coli ON29)?
Answer: 1 % w/v

Question: And the MBC/MFC (Proteus mirabilis ON153)?
Answer: 2 % w/v

Question: And the MBC/MFC [2]?
Answer: 1 % w/v

Question: And the MBC/MFC (Serratia marcescens SK2)?
Answer: 2 % w/v

Question: And the MBC/MFC [3]?
Answer: 1 % w/v

Question: What about the MBC/MFC [4] of the same compound?
Answer: 0.5 % w/v

Question: And the MBC/MFC [5]?
Answer: 1 % w/v

Question: What about the MBC/MFC (E. coli SK2 [6]) of the same compound?
Answer: 0.5 % w/v

Question: And the “Concentration in combination giving FICI” value (S. epidermidis SK9; [10])?
Answer: 0.015 % w/v

Question: And the “Concentration in combination giving FICI” value (S. epidermidis SK9; tetrasodium EDTA + ethanol)?
Answer: 0.015 % w/v

Question: And the “Concentration in combination giving FICI” value (E. coli SK2 [7]; [10])?
Answer: 0.008 % w/v

Question: And the “Concentration in combination giving FICI” value (E. coli SK2 [7]; tetrasodium EDTA + ethanol)?
Answer: 0.015 % w/v

Question: What about the MBEC (MRSA ON184 biofilm) of the same compound?
Answer: 2 % w/v

Question: And the “FBEC (concentration in combination)” value [8, 10]?
Answer: 0.125 % w/v

Question: And the “FBEC (concentration in combination)” value ([8]; tetrasodium EDTA + ethanol)?
Answer: 0.063 % w/v

Question: And the “Eradication of preformed biofilms” value [9]?
Answer: failed to eradicate
